In patent publication US7488799B2, “Prostaglandin receptor protein” (Aventis Pharmaceuticals Inc., priority 2003, dated 2009):
pEC50: −log10 of the molar value.

Experiments:
[1] = tested on: parental HEK293-Gα16 cell line; assay: Intracellular calcium assay (FLIPR), parental cell line without transfected DP receptor; assay type: cell-based; conditions: parental HEK293-Gα16 cells, no transfected DP receptor
Text: The cDNA encoding human Gα16 was cloned as described (Amatruda et al., 1991). Briefly, total RNA from HL-60 human promyelocytic leukemia cells was isolated and used as a template for PCR-mediated synthesis of cDNA encoding Gα16. The resulting PCR product was cloned into the expression vector pHook-3 (Invitrogen), which also coexpresses a single-chain antibody (sFv) to allow convenient enrichment of transfected cells using a panning protocol with hapten-coated magnetobeads (Chesnut et al., 1996). HEK293 cells were transfected with the constructed plasmid (pGα16), selected with Zeocin and positive clones enriched using magnetobeads according to protocols supplied by the vendor. […]
(§1) For functional characterization the newly cloned guinea pig DP receptor was stably transfected into HEK293-Gα16 cells and for comparison an equivalent cell line was generated with the mouse DP receptor. Both DP receptor-expressing cell lines, as well as the parental cell line not expressing any transfected DP receptor, were evaluated in a second messenger assay using the force coupling of the receptor to Gα16 to elicit a calcium response. […] Intracellular calcium was measured following PGD2 or buffer stimulation of […] loaded cells using a FLIPR instrument (Molecular Devices Corp.).

[2] = tested on: parental HEK293-Gα16 cell line; assay: SPA cAMP assay, parental cell line; assay type: cell-based; conditions: parental HEK293-Gα16 cells, 15 minutes stimulation
Description: (§2) An additional functional characterization of the newly cloned guinea pig DP receptor used the natural signaling pathway for DP, the stimulation of cAMP production by adenylate cyclase. Transfected or non-transfected cells were plated at 40,000 cells per well of a 96 well plate. After overnight incubation at 37° C., medium was replaced and cells were stimulated with defined concentrations of PGD2 for 15 minutes. The accumulation of cAMP was measured in the stimulated cells using the cAMP SPA Direct Screening Assay System (Amersham) according to procedures specified by the manufacturer.

mouse DP receptor [3] = molecular target: T1, mouse DP receptor (Mus musculus, UniProt P70263); assay: Intracellular calcium assay (FLIPR), mouse DP receptor in HEK293-Gα16 cells; assay type: cell-based; conditions: mouse DP-expressing HEK293-Gα16 cells, FIG. 6, read-out: EC50, intracellular calcium mobilization
T1 construct: A full length cDNA for the mouse DP receptor was obtained by PCR; expressed in transfected cells
T1 sequence (P70263 1-357): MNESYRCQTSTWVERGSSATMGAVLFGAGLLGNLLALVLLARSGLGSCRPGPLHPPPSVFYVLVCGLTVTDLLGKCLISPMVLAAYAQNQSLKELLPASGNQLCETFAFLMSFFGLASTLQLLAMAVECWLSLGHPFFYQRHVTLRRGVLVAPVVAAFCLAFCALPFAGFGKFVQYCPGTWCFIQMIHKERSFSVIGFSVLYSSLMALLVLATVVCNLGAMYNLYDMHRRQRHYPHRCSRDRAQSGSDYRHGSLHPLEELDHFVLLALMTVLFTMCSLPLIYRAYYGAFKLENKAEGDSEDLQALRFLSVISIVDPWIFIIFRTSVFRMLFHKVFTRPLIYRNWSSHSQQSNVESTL
Description: The pEAK10-gpDP and pEAK10-mDP vectors were transfected into the HEK293-Gα16 cell line using Lipofectamine 2000 (Gibco) as described by the manufacturer. Transfected cells were cultured under selection with 1 ug/ml puromycin and 250 ug/ml zeocin for 5 weeks. Expression of the DP receptor was monitored in the transfected cell population by measuring the release of intracellular calcium in response to PGD2 stimulation.
as §1, with “response. Intracellular calcium measurements were performed using non-transfected HEK293-Gα16 cells or cells transfected with either the pEAK10-gpDP or the pEAK10-mDP expression vectors. Transfected and non-transfected cells were plated in 384 well plates at 10,000 cells per well. Cells were washed three times with calcium assay buffer.” for “response.”

mouse DP receptor [4] = molecular target: T1, mouse DP receptor; assay: SPA cAMP assay, mouse DP cell line; assay type: cell-based; conditions: 15 minutes stimulation, FIG. 7, read-out: EC50, cAMP accumulation
[5] = tested on: recombinant guinea pig DP receptor; assay: Intracellular calcium assay (FLIPR), guinea pig DP receptor in HEK293-Gα16 cells; assay type: cell-based, guinea pig (Cavia porcellus); conditions: guinea pig DP-expressing HEK293-Gα16 cells, FIG. 6, read-out: EC50, intracellular calcium mobilization
Description: For functional characterization the newly cloned guinea pig DP receptor was stably transfected into HEK293-Gα16 cells and for comparison an equivalent cell line was generated with the mouse DP receptor. Both DP receptor-expressing cell lines, as well as the parental cell line not expressing any transfected DP receptor, were evaluated in a second messenger assay using the force coupling of the receptor to Gα16 to elicit a calcium response. Intracellular calcium measurements were performed using non-transfected HEK293-Gα16 cells or cells transfected with either the pEAK10-gpDP or the pEAK10-mDP expression vectors. Transfected and non-transfected cells were plated in 384 well plates at 10,000 cells per well. Cells were washed three times with calcium assay buffer. Cells were then incubated with 4 μM of the calcium loading dye Fura-4/AM (Molecular Probes) at 37° C. for x min. Unincorporated fura-4/AM was removed by three further washes with calcium assay buffer. Intracellular calcium was measured following PGD2 or buffer stimulation of Fura-4/AM loaded cells using a FLIPR instrument (Molecular Devices Corp.).

[6] = tested on: recombinant guinea pig DP receptor; assay: SPA cAMP assay, guinea pig DP cell line; assay type: cell-based, guinea pig (Cavia porcellus); conditions: 15 minutes stimulation, FIG. 7, read-out: EC50, cAMP accumulation
Description: as §2

Compound: CCCCC[C@H](O)/C=C/[C@H]1C(=O)C[C@H](O)[C@@H]1C/C=C\CCCC(=O)O [PGD2, Prostaglandin D2]
- PGD2 concentration at which a calcium response is seen [1]: above 10 μM
- intracellular cAMP response to stimulation [2]: did not show an increase in intracellular cAMP
- pEC50 (mouse DP receptor [3]): 7.74
- pEC50 (mouse DP receptor [4]): 9.30
- pEC50 [5]: 8.85
- pEC50 [6]: 9.10
